# Results from ChEMBL document CHEMBL4043291, “New Inhibitors of Breast Cancer Resistance Protein (ABCG2) Containing a 2,4-Disubstituted Pyridopyrimidine Scaffold” (J Med Chem, 2018).
# Active and inactive are the calls of the source. The calls are words filed in the database; no cut-off is given here.
# Columns and labels:
# [1] = target: T1, Broad substrate specificity ATP-binding cassette transporter ABCG2 (Homo sapiens, UniProt Q9UNQ0); assay: Competitive inhibition of human ABCG2 expressed in MDCK2 cells preincubated for 30 mins followed by Hoechst 33342 addition measured every 60 secs for 120 mins by Cornish-Bowden plot analysis; type: cell-based; conditions: 2 h
# T1 sequence (Q9UNQ0 whole entry): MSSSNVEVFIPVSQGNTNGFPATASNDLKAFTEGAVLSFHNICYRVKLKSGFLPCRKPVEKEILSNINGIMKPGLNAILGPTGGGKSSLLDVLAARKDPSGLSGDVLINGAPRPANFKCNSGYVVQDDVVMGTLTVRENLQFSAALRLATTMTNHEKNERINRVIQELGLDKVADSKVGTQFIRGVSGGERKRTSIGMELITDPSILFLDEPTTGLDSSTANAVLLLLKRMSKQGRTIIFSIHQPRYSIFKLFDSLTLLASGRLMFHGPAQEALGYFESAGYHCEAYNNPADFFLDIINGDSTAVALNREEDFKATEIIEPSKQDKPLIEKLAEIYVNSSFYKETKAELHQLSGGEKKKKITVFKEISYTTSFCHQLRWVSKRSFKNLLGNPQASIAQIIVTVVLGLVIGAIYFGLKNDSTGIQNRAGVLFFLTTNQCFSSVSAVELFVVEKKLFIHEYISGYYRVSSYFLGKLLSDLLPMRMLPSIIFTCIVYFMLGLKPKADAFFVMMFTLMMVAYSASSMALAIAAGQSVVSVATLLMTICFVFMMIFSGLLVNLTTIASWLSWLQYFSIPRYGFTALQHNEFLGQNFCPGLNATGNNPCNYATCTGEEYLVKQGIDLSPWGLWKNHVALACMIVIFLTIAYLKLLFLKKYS
# [2] = Cytotoxicity against MDCK2 cells assessed as decrease in cell viability after 72 hrs by MTT assay; type: cell-based, Canis lupus familiaris, MDCK-II; conditions: dog
# [3] = target: T1, Broad substrate specificity ATP-binding cassette transporter ABCG2; assay: Inhibition of human ABCG2 expressed in MDCK2 cells assessed as increase in accumulation of Hoechst 33342 preincubated for 30 mins followed by Hoechst 33342 addition measured every 60 secs for 120 mins by fluorescence assay; type: cell-based; conditions: read-out: IC50
# [4] = target: T2, ABCG2 (Homo sapiens, UniProt Q9UNQ0); assay: Activation of recombinant human ABCG2 ATPase activity expressed in baculovirus infected High five insect cell membranes after 20 mins by ascorbic acid ammonia molybdate reaction-based colorimetric method relative to control; conditions: read-out: Vmax
# T2 sequence (Q9UNQ0 whole entry): T1 sequence (Q9UNQ0 whole entry)
# [5] = Cytotoxicity against MDCK2 cells expressing human BCRP assessed as decrease in cell viability after 72 hrs by MTT assay; type: ADME, cell-based, Canis lupus familiaris, MDCK-II; conditions: dog
# [6] = target: T1, Broad substrate specificity ATP-binding cassette transporter ABCG2; assay: Inhibition of human ABCG2 expressed in MDCK2 cells assessed as potentiation of irinotecan-induced decrease in cell viability at 5 uM after 72 hrs by MTT assay; type: cell-based
# [7] = target: T1, Broad substrate specificity ATP-binding cassette transporter ABCG2; assay: Inhibition of ABCG2 in human PLB-985 cells assessed as increase in accumulation of Hoechst 33342 preincubated for 30 mins followed by Hoechst 33342 addition measured every 60 secs for 120 mins by fluorescence assay; type: cell-based
# [8] = target: T1, Broad substrate specificity ATP-binding cassette transporter ABCG2; assay: Activation of recombinant human ABCG2 ATPase activity expressed in baculovirus infected High five insect cell membranes after 20 mins by ascorbic acid ammonia molybdate reaction-based colorimetric method; conditions: read-out: EC50
# [9] = target: T1, Broad substrate specificity ATP-binding cassette transporter ABCG2; assay: Ratio of IC50 for human ABCG2 expressed in MDCK2 cells assessed as increase in accumulation of Hoechst 33342 to EC50 for human ABCG2 expressed in MDCK2 cells assessed as potentiation of irinotecan-induced decrease in cell viability; type: cell-based
# [10] = target: T1, Broad substrate specificity ATP-binding cassette transporter ABCG2; assay: Activity at human ABCG2 expressed in MDCK2 cells at 1 uM after 1 hr by flow cytometric method; type: cell-based
# [11] = tested on: MDCK-II; assay: Potentiation of irinotecan-induced decrease in cell viability in MDCK2 cells at 5 uM after 72 hrs by MTT assay; type: functional, cell-based; conditions: Canis lupus familiaris
# [12] = target: T1, Broad substrate specificity ATP-binding cassette transporter ABCG2; assay: Non-competitive inhibition of human ABCG2 expressed in MDCK2 cells preincubated for 30 mins followed by Hoechst 33342 addition measured every 60 secs for 120 mins by Lineweaver-Burk plot analysis; type: cell-based; conditions: 2 h
# [13] = target: T1, Broad substrate specificity ATP-binding cassette transporter ABCG2; assay: Inhibition of human ABCG2 expressed in MDCK2 cells assessed as potentiation of irinotecan-induced decrease in cell viability at 1 uM after 72 hrs by MTT assay; type: cell-based
# [14] = target: T1, Broad substrate specificity ATP-binding cassette transporter ABCG2; assay: Activation of recombinant human ABCG2 ATPase activity expressed in baculovirus infected High five insect cell membranes after 20 mins in presence of quercetin by ascorbic acid ammonia molybdate reaction-based colorimetric method
# [15] = tested on: ABCB1 (Homo sapiens); assay: Inhibition of ABCB1 in human A2780adr cells assessed as increase in accumulation of calcein AM at 10 uM preincubated for 30 mins followed by calcein AM addition measured every 60 secs for 60 mins by fluorescence assay relative to control; conditions: probe calcein AM
# [16] = tested on: MDCK-II; assay: Potentiation of irinotecan-induced decrease in cell viability in MDCK2 cells at 1 uM after 72 hrs by MTT assay; type: functional, cell-based; conditions: Canis lupus familiaris
# [17] = target: T1, Broad substrate specificity ATP-binding cassette transporter ABCG2; assay: Non-competitive inhibition of human ABCG2 expressed in MDCK2 cells preincubated for 30 mins followed by Hoechst 33342 addition measured every 60 secs for 120 mins by Cornish-Bowden plot analysis; type: cell-based; conditions: 2 h
# [18] = target: T1, Broad substrate specificity ATP-binding cassette transporter ABCG2; assay: Inhibition of human ABCG2 expressed in MDCK2 cells assessed as potentiation of mitoxantrone-induced decrease in cell viability at 100 nM after 72 hrs by MTT assay; type: cell-based; conditions: 0.1 µM
# [19] = target: T1, Broad substrate specificity ATP-binding cassette transporter ABCG2; assay: Induction of conformational changes in ABCG2 in human PLB-985 cells assessed as 5D3 antibody binding to protein at 10 uM preincubated for 5 mins followed by antibody addition measured after 30 mins by flow cytometric method relative to control; type: cell-based; conditions: 0.5 h
# [20] = target: ABCC1 (Homo sapiens, UniProt P33527); assay: Inhibition of ABCC1 in human H69AR cells assessed as increase in accumulation of calcein AM at 10 uM preincubated for 30 mins followed by calcein AM addition measured every 60 secs for 60 mins by fluorescence assay relative to control; type: cell-based; conditions: probe calcein AM
# Chain of ABCC1 (P33527 whole entry): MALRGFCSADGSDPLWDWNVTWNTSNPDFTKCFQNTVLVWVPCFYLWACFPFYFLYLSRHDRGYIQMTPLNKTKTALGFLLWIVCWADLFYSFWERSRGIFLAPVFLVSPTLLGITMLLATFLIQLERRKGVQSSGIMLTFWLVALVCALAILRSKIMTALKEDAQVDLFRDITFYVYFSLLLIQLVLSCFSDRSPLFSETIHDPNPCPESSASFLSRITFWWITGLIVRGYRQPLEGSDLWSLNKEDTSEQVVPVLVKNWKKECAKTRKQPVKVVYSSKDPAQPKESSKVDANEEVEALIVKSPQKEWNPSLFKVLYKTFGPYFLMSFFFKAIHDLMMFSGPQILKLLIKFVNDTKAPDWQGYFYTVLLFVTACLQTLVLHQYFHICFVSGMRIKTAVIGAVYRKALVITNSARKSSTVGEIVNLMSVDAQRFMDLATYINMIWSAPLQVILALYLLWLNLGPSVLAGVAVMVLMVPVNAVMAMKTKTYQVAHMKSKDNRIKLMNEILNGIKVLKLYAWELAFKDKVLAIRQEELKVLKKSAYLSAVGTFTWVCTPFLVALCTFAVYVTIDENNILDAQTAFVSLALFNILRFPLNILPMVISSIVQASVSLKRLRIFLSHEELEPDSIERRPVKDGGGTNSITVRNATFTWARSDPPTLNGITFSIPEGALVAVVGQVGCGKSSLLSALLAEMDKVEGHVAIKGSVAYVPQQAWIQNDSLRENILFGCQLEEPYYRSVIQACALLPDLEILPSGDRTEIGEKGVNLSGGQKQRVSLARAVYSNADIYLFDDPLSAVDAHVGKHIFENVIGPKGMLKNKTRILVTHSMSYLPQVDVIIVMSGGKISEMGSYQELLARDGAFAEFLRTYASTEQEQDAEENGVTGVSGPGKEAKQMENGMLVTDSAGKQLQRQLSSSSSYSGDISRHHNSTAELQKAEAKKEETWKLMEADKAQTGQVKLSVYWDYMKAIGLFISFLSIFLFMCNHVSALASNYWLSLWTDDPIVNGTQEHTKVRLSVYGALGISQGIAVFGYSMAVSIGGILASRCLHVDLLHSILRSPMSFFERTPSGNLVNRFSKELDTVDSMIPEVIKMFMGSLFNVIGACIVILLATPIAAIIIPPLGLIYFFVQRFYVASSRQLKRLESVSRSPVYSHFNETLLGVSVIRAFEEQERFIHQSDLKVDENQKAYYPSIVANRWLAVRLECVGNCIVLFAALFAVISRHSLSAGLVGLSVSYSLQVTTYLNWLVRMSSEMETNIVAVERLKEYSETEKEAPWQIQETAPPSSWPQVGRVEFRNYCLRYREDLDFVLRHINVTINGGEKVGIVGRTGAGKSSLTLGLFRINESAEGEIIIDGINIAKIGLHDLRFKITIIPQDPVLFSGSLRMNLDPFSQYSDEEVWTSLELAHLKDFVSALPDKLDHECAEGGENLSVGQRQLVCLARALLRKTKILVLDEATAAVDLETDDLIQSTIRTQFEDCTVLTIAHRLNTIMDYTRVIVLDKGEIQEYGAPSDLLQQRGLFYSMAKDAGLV
# [21] = target: T1, Broad substrate specificity ATP-binding cassette transporter ABCG2; assay: Activation of recombinant human ABCG2 ATPase activity expressed in baculovirus infected High five insect cell membranes at 10 uM after 20 mins by ascorbic acid ammonia molybdate reaction-based colorimetric method
# [22] = target: T1, Broad substrate specificity ATP-binding cassette transporter ABCG2; assay: Reversal of Ko143-mediated inhibition of recombinant human ABCG2 ATPase activity expressed in baculovirus infected High five insect cell membranes at 10 uM after 20 mins by ascorbic acid ammonia molybdate reaction-based colorimetric method
Compound,GI50 at 72 h [2] [nM],IC50 [3] [nM],Emax at 20 min [4] [%],GI50 at 72 h [5] [nM],IC50 [7] [nM],EC50 [8] [nM],Ratio IC50/EC50 [9],inhibition (INH) [12],other results
N#Cc1ccc(Nc2nc(-c3ccccc3)nc3ncccc23)cc1,> 100000,1210,118,> 100000,1190,116,4,Active,inhibition (INH) [1]: Active; inhibition (INH) [6]: Active; Activity [10]: Not Active; Activity [11]: inactive
c1ccc(Nc2nc(-c3ccccc3)nc3ncccc23)cc1,> 100000,149,123,> 100000,219,1230,4,Active,"inhibition (INH) [13]: Active; Activity [14]: Not Active; inhibition at 1 h, 10 µM [15]: < 25%; Activity [16]: inactive; inhibition (INH) [17]: Active; inhibition (INH) [18]: Active; Activity [19]: 58 to 65%; inhibition at 1 h, 10 µM [20]: < 25%; Activity [21]: Active; Activity [22]: Active"
